According to patent publication US20060147485A1, “Oil-in-water formulation of avermectins” (priority 2005, published 2006):

Experiments:
[1] = Stability of Abamectin in water at various pH-values and temperatures (dark, HPLC); type: physicochemical
Experimental: The stability of Abamectin in water at various pH-values and temperatures was determined. 194.4 mg of abamectin was dissolved in 10 ml methanol and 1 ml of the solution transferred to 100 ml of de-mineralised water and a part of this was transferred to a buffer solution. The sample was kept in the dark and the solution analysed using a HPLC.

[2] = Stability of Abamectin in water exposed to light at various pH-values (HPLC); type: physicochemical; details: Light (5000-6000 lux)
Experimental: The stability of Abamectin in water exposed to light at various pH-values was determined. 194.4 mg of abamectin was dissolved in 10 ml methanol and 1 ml of the solution transferred to 100 ml of demineralised water and a part of this transferred to a buffer solution. The solution was exposed to light (5000-6000 lux) at 25° C. and analysed using a HPLC.

In the case of Abamectin, the “Abemectin concentration (ppm)” value ([1]; pH 4.0, 25 ° C., 7 days) is reported as 3.130 ppm, the “Abemectin concentration (ppm)” value ([1]; pH 4.0, 25 ° C., 14 days) is reported as 2.782 ppm and the “Abemectin concentration (ppm)” value ([1]; pH 4.0, 25 ° C., 21 days) is reported as 2.566 ppm. The “Abemectin concentration (ppm)” value ([1]; pH 4.0, 25 ° C., 28 days) was 2.524 ppm, the “Abemectin concentration (ppm)” value ([1]; pH 4.0, 25 ° C., Initial) was 3.495 ppm and the “Abemectin concentration (ppm)” value ([1]; pH 4.0, 50 ° C., 7 days) was 1.054 ppm. For the same substance, the “Abemectin concentration (ppm)” value ([1]; pH 4.0, 50 ° C., 14 days) was 0.383 ppm, the “Abemectin concentration (ppm)” value ([1]; pH 4.0, 50 ° C., 21 days) was 0.123 ppm and the “Abemectin concentration (ppm)” value ([1]; pH 4.0, 50 ° C., 28 days) was 0.0609 ppm. For the same substance, the “Abemectin concentration (ppm)” value ([1]; pH 4.0, 50 ° C., Initial) was 3.495 ppm, the “Abemectin concentration (ppm)” value ([1]; pH 7.0, 25 ° C., 7 days) was 3.188 ppm and the “Abemectin concentration (ppm)” value ([1]; pH 7.0, 25 ° C., 14 days) was 3.040 ppm. The “Abemectin concentration (ppm)” value ([1]; pH 7.0, 25 ° C., 21 days) was 2.829 ppm, the “Abemectin concentration (ppm)” value ([1]; pH 7.0, 25 ° C., 28 days) was 2.676 ppm and the “Abemectin concentration (ppm)” value ([1]; pH 7.0, 25 ° C., Initial) was 3.327 ppm. The “Abemectin concentration (ppm)” value ([1]; pH 7.0, 50 ° C., 7 days) was 2.952 ppm, the “Abemectin concentration (ppm)” value ([1]; pH 7.0, 50 ° C., 14 days) was 2.780 ppm and the “Abemectin concentration (ppm)” value ([1]; pH 7.0, 50 ° C., 21 days) was 2.194 ppm. The “Abemectin concentration (ppm)” value ([1]; pH 7.0, 50 ° C., 28 days) was 1.949 ppm, the “Abemectin concentration (ppm)” value ([1]; pH 7.0, 50 ° C., Initial) was 3.327 ppm and the “Abemectin concentration (ppm)” value ([1]; pH 9.0, 25 ° C., 7 days) was 3.005 ppm. The “Abemectin concentration (ppm)” value ([1]; pH 9.0, 25 ° C., 14 days) was 2.596 ppm, the “Abemectin concentration (ppm)” value ([1]; pH 9.0, 25 ° C., 21 days) was 2.380 ppm and the “Abemectin concentration (ppm)” value ([1]; pH 9.0, 25 ° C., 28 days) was 2.287 ppm. The “Abemectin concentration (ppm)” value ([1]; pH 9.0, 25 ° C., Initial) was 3.555 ppm, the “Abemectin concentration (ppm)” value ([1]; pH 9.0, 50 ° C., 7 days) was 1.265 ppm and the “Abemectin concentration (ppm)” value ([1]; pH 9.0, 50 ° C., 14 days) was 0.519 ppm. The “Abemectin concentration (ppm)” value ([1]; pH 9.0, 50 ° C., 21 days) was 0.205 ppm, the “Abemectin concentration (ppm)” value ([1]; pH 9.0, 50 ° C., 28 days) was 0.0628 ppm and the “Abemectin concentration (ppm)” value ([1]; pH 9.0, 50 ° C., Initial) was 3.555 ppm. The “Abemectin concentration (ppm)” value ([2]; pH 4.0, 25° C., 7 days) was 2.923 ppm, the “Abemectin concentration (ppm)” value ([2]; pH 4.0, 25° C., 14 days) was 2.332 ppm and the “Abemectin concentration (ppm)” value ([2]; pH 4.0, 25° C., 21 days) was 1.961 ppm. The “Abemectin concentration (ppm)” value ([2]; pH 4.0, 25° C., 28 days) was 1.666 ppm, the “Abemectin concentration (ppm)” value ([2]; pH 4.0, 25° C., Initial) was 3.495 ppm and the “Abemectin concentration (ppm)” value ([2]; pH 7.0, 25° C., 7 days) was 2.941 ppm. The “Abemectin concentration (ppm)” value ([2]; pH 7.0, 25° C., 14 days) was 2.529 ppm, the “Abemectin concentration (ppm)” value ([2]; pH 7.0, 25° C., 21 days) was 2.223 ppm and the “Abemectin concentration (ppm)” value ([2]; pH 7.0, 25° C., 28 days) was 2.034 ppm. For the same substance, the “Abemectin concentration (ppm)” value ([2]; pH 7.0, 25° C., Initial) was 3.327 ppm, the “Abemectin concentration (ppm)” value ([2]; pH 9.0, 25° C., 7 days) was 3.163 ppm and the “Abemectin concentration (ppm)” value ([2]; pH 9.0, 25° C., 14 days) was 2.810 ppm. The “Abemectin concentration (ppm)” value ([2]; pH 9.0, 25° C., 21 days) was 2.360 ppm, the “Abemectin concentration (ppm)” value ([2]; pH 9.0, 25° C., 28 days) was 2.173 ppm and the “Abemectin concentration (ppm)” value ([2]; pH 9.0, 25° C., Initial) was 3.555 ppm.
